The numbers were not newly measured in patent US4486414A, “Dolastatins A and B cell growth inhibitory substances” (Arizona Board of Reagents, priority 1983, dated 1984), which cites them from elsewhere.

Series [1] relates to murine P388 lymphocytic leukemia. The note with it: intraperitoneal doses of 11 μg/kg/day; cited from earlier work.
A further series concerns murine B16 melanoma. To be noted: intraperitoneal doses of 11 μg/kg/day; cited from earlier work.

On to dolastatin 1, for which the life extension in series [1] is 88%. For the same substance, in the series with murine B16 melanoma, the curative response was 30%.
